{"source": "patent US5849326A", "about": "“Method for treating neuronal diseases via administration of 2-acylaminopropanol derivatives” (Seikagaku Corporation, priority 1993, dated 1998)", "key": {"[1]": {"system": "ICR mice", "experiment": "General toxicity, continuous 10-day intraperitoneal administration", "format": "in vivo", "settings": "100 mg/kg/day intraperitoneally for 10 days"}, "[2]": {"system": "explants", "experiment": "Neurite-extending activity in explants (Example 6)", "format": "cell-based", "settings": "5 μM to 15 μM, cultured for 40 hours, FIG. 5", "method": "1.6×10^5 cells/well of explants were sowed in a plate with 24 wells containing a DMEM medium. […] After the mixture was cultured for 40 hours, the resulting culture was fixed and then dyed with Coomassie, and nervous fibers extended to have a length which was longer than a diameter of […] were counted."}, "[3]": {"system": "primary cultured rat cerebral neurocytes", "experiment": "Ganglioside content (ganglioside-binding sialic acid) of primary cultured neurocytes", "format": "cell-based", "method": "Rat fetuses at the 18th day of pregnancy were taken out, and forebrain base portions of the fetuses were extracted aseptically and cut into small pieces by scissors. After the pieces were treated with papain (in a phosphate buffer containing 0.02% L-cysteine containing 180 U papain, 0.02% bovine serum albumin and 0.5% glucose, pH 7.4, at 37° C. for 30 minutes), they were washed with a mixed solution (DF medium) of 1:1 of a Dulbecco modified Eagle's medium and a Ham's F12 medium and suspended in a DF medium containing 5% bovine fetal serum and 5% equine serum. This neurocyte suspension was charged into a culture plate with 24 wells (Falcon, Primaria) in an amount of 1×10^6 cells/well. […] After completion of the culture, the cells in the respective wells were washed with a phosphate buffer and recovered by rubber policeman. Further, a ganglioside fraction was extracted by adding chloroform/methanol/water (1:2:0.8) and shaking the mixture for 5 minutes. […] The no addition group (control) which was defined as 100% was compared with the test groups, and the results are shown in Table 1."}, "[4]": {"system": "GM3 synthase", "experiment": "Enzyme activity in treated cerebral cortex culture: GM3 synthase", "format": "cell-based, rat", "settings": "culture treated with 15 μM for 40 hours", "method": "(§1) After the mixture was cultured for 40 hours, the resulting culture was harvested and pulverized in a homogenized buffer (50 mM Hepes, 0.32M sucrose) by using a chip type sonicator to prepare an enzyme source.\nAfter the mixture containing a reaction product was developed by a reverse phase thin layer plate, a portion corresponding to the reaction product was scratched off, and its radioactivity was counted."}, "[5]": {"system": "acyl-CoA: sphingosine N-acyltransferase", "experiment": "Enzyme activity in treated cerebral cortex culture: acyl-CoA: sphingosine N-acyltransferase", "format": "cell-based, rat", "settings": "culture treated with 15 μM for 40 hours", "method": "as §1\n0.25 mM sphingosine and 0.45 mM ^14 C palmitoyl CoA (8.3×10^5cpm) were reacted in the presence of ATP (adenosine 5'-triphosphate). After ceramide which was a reaction product was subjected to solvent extraction, the extract was concentrated and evaporated to dryness, and its radioactivity was counted."}, "[6]": {"system": "rat cerebral cortex neurocytes", "experiment": "Synapse formation measured as frequency of intracellular Ca2+ fluctuation", "format": "cell-based", "settings": "FIG. 4", "description": "Further, as a method of measuring synapse formation relatively simply and easily, there has been developed a multipoint observation system of Ca^2+ in neurocytes using Fura-2, and it has been confirmed that the number of synapse formation is in direct proportion to frequency of intracellular Ca^2+ fluctuation in synchronization therewith (Br. J. Pharmacol., 89, 191-198, 1986; Neurosci. Lett., 78, 69-74, 1987). We investigated influences of L-threo-FDMP and D-threo-PDMP exerted on synapse formation between rat cerebral cortex neurocytes by using this method, and the results are shown below."}, "[7]": {"system": "LacCer (lactosylceramide) synthase", "experiment": "Enzyme activity in treated cerebral cortex culture: LacCer synthase", "format": "cell-based, rat", "settings": "culture treated with 15 μM for 40 hours", "method": "as §1\nGlcCer as an acceptor substrate was reacted with 0.315mM UDP (uridine diphosphate)-^3 H galactose (2.7×10^8 cpm) as a donor substrate. After the mixture containing ^3 H-LacCer which was a reaction product was developed by a silica gel thin layer plate, a portion corresponding to the reaction product was scratched off, and its radioactivity was counted."}, "[8]": {"system": "GSL", "settings": "J. Lipid. Res., vol. 28, pp. 565-571, 1987; cited from earlier work"}, "[9]": {"system": "neurites", "settings": "J. Biochem., vol. 110, pp. 96-103, 1991; cited from earlier work"}, "[10]": {"system": "serine palmitoyltransferase", "experiment": "Enzyme activity in treated cerebral cortex culture: serine palmitoyltransferase", "format": "cell-based, rat", "settings": "culture treated with 15 μM for 40 hours", "method": "as §1\n1.5 mM palmitoyl CoA (coenzyme A) and 0.1 mM ^14 C serine (8.3×10^5 cpm) were reacted in the presence of 0.5 mM pyridoxalphosphoric acid. After 3-keto-sphingosine which was a reaction product was extracted, the extract was concentrated and evaporated to dryness, and its radioactivity was counted."}, "[11]": {"system": "GD3 synthase", "experiment": "Enzyme activity in treated cerebral cortex culture: GD3 synthase", "format": "cell-based, rat", "settings": "culture treated with 15 μM for 40 hours", "method": "as §1\nGM3 as an acceptor substrate was reacted with 30 mM CMP-^14 C sialic acid (2.88×10^6 cpm) as a donor substrate. After the mixture containing a reaction product was developed by a reverse phase thin layer plate, a portion corresponding to the reaction product was scratched off, and its radioactivity was counted."}, "[12]": {"target": "T1, glucosylceramide biosynthesizing enzyme (Mus musculus, UniProt O88693)", "T1 sequence (O88693 1-394)": "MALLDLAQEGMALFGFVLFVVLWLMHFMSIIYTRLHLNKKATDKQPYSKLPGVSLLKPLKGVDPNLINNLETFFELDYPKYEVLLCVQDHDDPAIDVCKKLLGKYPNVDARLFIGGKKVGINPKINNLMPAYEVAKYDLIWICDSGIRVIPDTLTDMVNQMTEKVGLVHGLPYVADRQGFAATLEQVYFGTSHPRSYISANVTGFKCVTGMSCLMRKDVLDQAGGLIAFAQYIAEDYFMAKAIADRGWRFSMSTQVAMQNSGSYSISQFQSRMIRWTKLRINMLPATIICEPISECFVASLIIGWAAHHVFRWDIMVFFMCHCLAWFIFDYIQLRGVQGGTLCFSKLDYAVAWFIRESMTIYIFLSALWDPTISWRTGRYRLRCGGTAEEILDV", "settings": "J. Lipid. Res., vol. 28, pp. 565-571, 1987; cited from earlier work"}, "[13]": {"target": "T2, GlcCer (glucosylceramide) synthase (Rattus norvegicus, UniProt Q9R0E0)", "T2 construct": "primary culture of cerebral cortex tissue specimens of Wister albino rats; endogenous in cells; host or cells: primary culture of rat (Wistar) cerebral cortex, sonicated after 40 h with compound", "T2 sequence (Q9R0E0 1-394)": "T1 sequence (O88693 1-394) with D96E, K164R, R249K, T377A", "experiment": "Enzyme activity in treated cerebral cortex culture: GlcCer synthase", "format": "cell-based", "settings": "culture treated with 15 μM for 40 hours", "method": "as §1\nAfter ^3 H-GlcCer which was a reaction product was extracted with t-butyl methyl ether, the extract was concentrated and evaporated to dryness, and its radioactivity was measured."}, "[14]": {"system": "rats with spacial recognition disorder caused by repeated cerebral ischemia", "experiment": "Maze radiated in 8 directions after repeated cerebral ischemia (Example 9)", "format": "in vivo", "settings": "40 mg/kg i.p. twice a day for 6 days", "method": "Wister albino male rats (weight: 250 to 280 g) were used, and training of a task of a maze which was radiated in 8 directions was conducted once a day to make the rats acquire spacial recognition. The rats which had acquired spacial recognition were subjected to cauterization of vertebral arteries and operation of peeling common carotid arteries according to the method of Pulsinelli, Brierly, et al. (Stroke, vol. 10, p. 267, 1979). […] The ischemia treatment was carried out by repeating ischemia twice, i.e., ligating common carotid arteries for 10 minutes by using clips without anesthesia and further ligating them for 10 minutes after 1 hour from restarting of blood flow. Retention trial was carried out one week after the ischemia treatment, and the results were represented by the number of correct choices among first 8 choices, whether all of 8 baits were taken or not, or the number of errors within an observation period a maximum of which was 10 minutes. Further, a pharmaceutical effect was evaluated by 3 ranks, i.e., remarkably effective (showing that the number of correct choices is 7 or more and the number of errors is 1 or less), effective (showing that the number of correct choices is 7 or more and the number of errors is 2 or 3) and ineffective (showing that the number of errors is 4 or more), and represented as an improvement rate thereof.\nIn the above experiment, examined was influence of continuous administration of 40 mg/kg of PDMP (i.p.) twice a day for 6 days started after 24 hours from the ischemia treatment, which was exerted on the spacial recognition disorder one week after the repeated cerebral ischemia, in the task of the maze which was radiated in 8 directions using the rats."}, "[15]": {"settings": "started 24 hours after ischemia, retention trial one week after ischemia, FIG. 7"}}, "note": "Substitutions are numbered along the chain they refer to.", "data": [{"smiles": "CCCCCCCCCC(=O)N[C@H](CN1CCOCC1)[C@H](O)c1ccccc1", "note": "(relative stereo) [DL-threo-PDMP, 1-phenyl-2-decanoylamino-3-morpholino-1-propanol]", "values": [{"measurement": "decrease in weight / decrease in neutrophile, acidocyte due to suppression of bone marrow", "setting": "[1]; in Myrj 52", "value": "neither decrease in weight nor decrease in neutrophile, acidocyte, etc. due to suppression of bone marrow was observed"}, {"measurement": "abnormality on observation for 3 months", "setting": "[1]; observation for 3 months", "value": "no abnormality was observed"}]}, {"smiles": "CCCCCCCCCC(=O)N[C@H](CN1CCOCC1)[C@H](O)c1ccccc1", "note": "[D-threo-PDMP, 1-phenyl-2-decanoylamino-3-morpholino-1-propanol]", "values": [{"measurement": "effect on neurite extension", "setting": "[2]", "value": "moderate suppression of neurite extension"}, {"measurement": "ganglioside level as compared with that of the control", "setting": "[3]; 20 μM, 3 days", "value": "decrease in the ganglioside level"}, {"measurement": "activity at 20 µM", "setting": "[3]; Rattus norvegicus, 72 h, culture for 3 days, control defined as 100%", "value": 63.4, "unit": "%"}, {"measurement": "Accelerating activity when enzyme activity of control is defined as 100%: GM3 synthase", "setting": "[4]", "value": "no change in the activities was observed"}, {"measurement": "Accelerating activity when enzyme activity of control is defined as 100%: Acyl-CoA: sphigosine N-acyltransferase", "setting": "[5]", "value": "no change in the activities was observed"}, {"measurement": "number of synapse formation (frequency of intracellular Ca2+ fluctuation)", "setting": "[6]", "value": "suppressedly acted on synapse formation"}, {"measurement": "Accelerating activity when enzyme activity of control is defined as 100%: LacCer synthase", "setting": "[7]", "value": "no change in the activities was observed"}, {"measurement": "intracellular content of all GSL", "setting": "[8]", "value": "extremely decreases an intracellular content of all GSL"}, {"measurement": "extension of neurites", "setting": "[9]", "value": "extension of neurites is suppressed"}, {"measurement": "Accelerating activity when enzyme activity of control is defined as 100%: Serine palmitoyltransferase", "setting": "[10]", "value": "no change in the activities was observed"}, {"measurement": "Accelerating activity when enzyme activity of control is defined as 100%: GD3 synthase", "setting": "[11]", "value": "no change in the activities was observed"}, {"measurement": "inhibition of glucosylceramide biosynthesizing enzyme", "setting": "[12]", "value": "specifically inhibits a glucosylceramide biosynthesizing enzyme"}, {"measurement": "Accelerating activity when enzyme activity of control is defined as 100%: GlcCer-synthase", "setting": "[13]", "value": "no change in the activities was observed"}]}, {"smiles": "CCCCCCCCCC(=O)NC(CN1CCOCC1)C(O)c1ccccc1", "note": "(stereo not drawn) [PDMP, 1-phenyl-2-decanoylamino-3-morpholino-1-propanol]", "values": [{"measurement": "number of the correct choices versus vehicle group", "setting": "[14]; [15]", "value": "increase of the number of the correct choices"}, {"measurement": "number of the errors versus vehicle group", "setting": "[14]; [15]", "value": "decrease of the number of the errors"}, {"measurement": "improvement rate: rats in the remarkably effective rank", "setting": "[14]; 4/8 rats, FIG. 8", "value": 50, "unit": "%"}]}]}
